# Source: patent EP0767778B1, “1-PHENOXY-3-N-ALKYLAMINOPROPAN-2-OL HALOGEN DERIVATIVES USEFUL AS MYOCARDIAL beta [sequence] RECEPTOR MARKERS AND AS beta-BLOCKING AGENTS” (CIS BIO INTERNATIONAL, priority 1994, dated 1996)
# How the values were obtained:
# [1] = octanol-water partition coefficient at room temperature; assay type: physicochemical; settings: pH 7
# [2] = biodistribution study in the mouse (Example 22); assay type: in vivo, souris; settings: souris swiss femelles, injection intraveineuse
# Protocol: L'étude de la biodistribution des radioligands chez la souris, permet d'apprécier l'intensité relative de la fixation cardiaque de la molécule et son évolution dans le temps.
# Après marquage à l'iode 123 et purification par CLHP 20µCi environ de produit sont mis en solution dans 5 ml d'une solution : éthanol 20%-sérum physiologique 80%. Après injection intraveineuse de 25 µl de cette solution dans la queue de souris vigiles (souris swiss femelles de 20 à 25 g), celles-ci (5 à chaque fois) sont sacrifiées à différents temps après l'injection. On mesure pour chaque souris les activités cardiaques, hépatique, rénale et pulmonaire. Les résultats sont exprimés en pourcentage de la dose injectée par gramme d'organe.
# Le CGP12177 étant la référence, un lot de souris a été étudié après injection de CGP 12177 marqué au tritium.
# [3] = system: récepteurs β adrénergiques; experiment: isolated perfused rat heart (Langendorff), antagonism of isoprenaline on dP/dt max; settings: for DP/dt max: n=6
# Protocol: Dans cet exemple, on teste la propriété pharmacologique antagoniste du composé 6 vis-à-vis des récepteurs β adrénergiques.
# L'expérience est conduite sur coeur de rat isolé et perfusé selon la technique de Langendorff.
# Après une préperfusion de 25 minutes avec une solution de Krebs-Henseleit, le coeur est perfusé avec de l'isoprénaline à la concentration de 10^-8M pendant 10 minutes; puis avec une solution d'isoprénaline à 10^-8M associée à la molécule à tester à la concentration de 10^-6M.
# Si la molécule à tester diminue la dP/dt max en présence d'isoprénaline, on pourra affirmer que cette molécule se comporte comme un antagoniste de l'isoprénaline vis-à-vis des récepteurs β adrénergiques.
# [4] = Isoprénaline + molécule (10^e+8 min), isoprénaline 10^-8M, test molecule 10^-6M
Compound,Coefficient de partage octanol-eau à pH 7 [1],Biodistribution Foie ([2]; 2'),Biodistribution Rein ([2]; 2'),Biodistribution Foie ([2]; 5'),Biodistribution Rein ([2]; 5'),Biodistribution Foie ([2]; 10'),Biodistribution Rein ([2]; 10'),"Biodistribution Coeur ([2]; 15"")","Biodistribution Foie ([2]; 15"")","Biodistribution Poumon ([2]; 15"")","Biodistribution Rein ([2]; 15"")",Biodistribution Coeur ([2]; 15'),Biodistribution Foie ([2]; 15'),Biodistribution Poumon ([2]; 15'),Biodistribution Rein ([2]; 15'),Biodistribution Coeur ([2]; 2 min.),Biodistribution Poumon ([2]; 2 min.),Biodistribution Coeur ([2]; 5 min.),Biodistribution Poumon ([2]; 5 min.),Biodistribution Coeur ([2]; 10 min.),also measured
1-{4-[2-(2-iodoéthoxy) éthoxy]phénoxy}-3-isopropyl-aminopropan-2-ol [composé 16],"6,7","3,6 ± 0,5 pourcentage de la dose injectée par gramme d'organe","16,4 ± 3,6 pourcentage de la dose injectée par gramme d'organe","7,2 ± 1,6 pourcentage de la dose injectée par gramme d'organe","19,5 ± 5 pourcentage de la dose injectée par gramme d'organe","7,8 ± 1,6 pourcentage de la dose injectée par gramme d'organe","15,4 ± 2 pourcentage de la dose injectée par gramme d'organe","20,4 ± 3,8 pourcentage de la dose injectée par gramme d'organe","1,5 ± 0,8 pourcentage de la dose injectée par gramme d'organe",112 ± 37 pourcentage de la dose injectée par gramme d'organe,"4 ± 2,6 pourcentage de la dose injectée par gramme d'organe","3,6 ± 0,4 pourcentage de la dose injectée par gramme d'organe","7,9 ± 0,5 pourcentage de la dose injectée par gramme d'organe","29,6 ± 4 pourcentage de la dose injectée par gramme d'organe","14 ± 2,6 pourcentage de la dose injectée par gramme d'organe","13 ± 1,3 pourcentage de la dose injectée par gramme d'organe","73,3 ± 10 pourcentage de la dose injectée par gramme d'organe","7 ± 0,7 pourcentage de la dose injectée par gramme d'organe","52,7 ± 4 pourcentage de la dose injectée par gramme d'organe","4,1 ± 0,4 pourcentage de la dose injectée par gramme d'organe","Biodistribution Poumon ([2]; 10 min.): 38,9 ± 5,3 pourcentage de la dose injectée par gramme d'organe"
"CC(C)NCC(O)COc1ccc(OCOCC=CI)cc1 (racemic) [composé 10, 1-[4-(5-iodo-2-oxapent-4-ényloxy)phénoxy]3-isopropylaminopropan-2-ol]","13,2","7,2 ± 1,1 pourcentage de la dose injectée par gramme d'organe","14,8 ± 1 pourcentage de la dose injectée par gramme d'organe","10,2 ± 1,1 pourcentage de la dose injectée par gramme d'organe","14 ± 1,1 pourcentage de la dose injectée par gramme d'organe","6,3 ± 3,3 pourcentage de la dose injectée par gramme d'organe","10,7 ± 1,1 pourcentage de la dose injectée par gramme d'organe","28,4 ± 3,6 pourcentage de la dose injectée par gramme d'organe","1,7 ± 0,8 pourcentage de la dose injectée par gramme d'organe","144,52 pourcentage de la dose injectée par gramme d'organe","11,4 ± 5,1 pourcentage de la dose injectée par gramme d'organe","3,9 ± 0,2 pourcentage de la dose injectée par gramme d'organe","9 ± 0,2 pourcentage de la dose injectée par gramme d'organe","2,3 ± 7 pourcentage de la dose injectée par gramme d'organe","9,1 ± 0,4 pourcentage de la dose injectée par gramme d'organe","15 ± 1,5 pourcentage de la dose injectée par gramme d'organe",60 ± 10 pourcentage de la dose injectée par gramme d'organe,"9,5 ± 2,3 pourcentage de la dose injectée par gramme d'organe",58 ± 4 pourcentage de la dose injectée par gramme d'organe,"5,3 ± 0,15 pourcentage de la dose injectée par gramme d'organe","Biodistribution Coeur ([2]; 30'): 3,1 ± 0,15 pourcentage de la dose injectée par gramme d'organe; Biodistribution Foie ([2]; 30'): 7,2 ± 0,8 pourcentage de la dose injectée par gramme d'organe; Biodistribution Poumon ([2]; 30'): 22 ± 4 pourcentage de la dose injectée par gramme d'organe; Biodistribution Rein ([2]; 30'): 7,6 ± 0,2 pourcentage de la dose injectée par gramme d'organe; Biodistribution Poumon ([2]; 10 min.): 33 ± 14 pourcentage de la dose injectée par gramme d'organe"
CC(C)NCC(O)c1ccc(O)c(O)c1 (stereo not shown) [Isoprenaline],–,–,–,–,–,–,–,–,–,–,–,–,–,–,–,–,–,–,–,–,"DP/dt max ([3]; Isoprénaline (10^e min), isoprénaline 10^-8M alone): 2535±1233 mmHg/min; DP/dt max [3, 4]: 2398±1088 mmHg/min; augmentation de la dP/dt max par rapport à la préperfusion ([3]; isoprénaline seule 10^-8M): 254%"
1-[4-(2-iodoéthylènamido)phénoxy]-3-isopropylaminopropan-2-ol [composé 15],"2,91","6 ± 0,75 pourcentage de la dose injectée par gramme d'organe","20,9 ± 2,5 pourcentage de la dose injectée par gramme d'organe","3,6 ± 0,4 pourcentage de la dose injectée par gramme d'organe","13,3 ± 0,6 pourcentage de la dose injectée par gramme d'organe","2,6 ± 0,2 pourcentage de la dose injectée par gramme d'organe","7,2 ± 0,4 pourcentage de la dose injectée par gramme d'organe","16,2 ± 2,1 pourcentage de la dose injectée par gramme d'organe","4,8 ± 0,2 pourcentage de la dose injectée par gramme d'organe",55 ± 12 pourcentage de la dose injectée par gramme d'organe,"17,1 ± 1,2 pourcentage de la dose injectée par gramme d'organe","3,2 ± 0,2 pourcentage de la dose injectée par gramme d'organe","2,6 ± 0,2 pourcentage de la dose injectée par gramme d'organe","11,2 ± 2,2 pourcentage de la dose injectée par gramme d'organe","6,3 ± 1 pourcentage de la dose injectée par gramme d'organe","14,4 ± 0,9 pourcentage de la dose injectée par gramme d'organe",34 ± 6 pourcentage de la dose injectée par gramme d'organe,"8,4 ± 0,3 pourcentage de la dose injectée par gramme d'organe",25 ± 6 pourcentage de la dose injectée par gramme d'organe,"3,6 ± 0,7 pourcentage de la dose injectée par gramme d'organe","Biodistribution Coeur ([2]; 30'): 2,2 ± 0,15 pourcentage de la dose injectée par gramme d'organe; Biodistribution Foie ([2]; 30'): 2,1 ± 0,1 pourcentage de la dose injectée par gramme d'organe; Biodistribution Poumon ([2]; 30'): 8,4 ± 0,8 pourcentage de la dose injectée par gramme d'organe; Biodistribution Rein ([2]; 30'): 4,8 ± 0,6 pourcentage de la dose injectée par gramme d'organe; Biodistribution Poumon ([2]; 10 min.): 13,2 ± 3,1 pourcentage de la dose injectée par gramme d'organe"
CC(C)NCC(O)COc1cccc2ccccc12 (stereo not shown) [propranolol],–,–,–,–,–,–,–,–,–,–,–,–,–,–,–,–,–,–,–,–,"DP/dt max [3, 4]: 814±240 mmHg/min; effect on the action of isoprénaline on dP/dt max ([3]; isoprénaline 10^-8M + molecule 10^-6M): revient à la valeur basale"
